Experimental data reported in PubChem BioAssay AID1963825 (Molecular Pharmacology Branch, DTP, NCI, 2024).

Experiment: Anticancer human tumor 997537-175-T-J1-PDC patient-derived colon adenocarcinoma cell line growth inhibition [POLQ]
Conditions: 997537-175-T-J1-PDC complex spheroid viability, combination with POLQ inhibitors; second compound 3.16 µM; first compound 0.1 µM; active compounds read low
Summary of the method: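 Growth inhibition in 3D: complex spheroids (tumor PDC, HUVEC, MSC) treated with POLQ inhibitor combinations; where Cmax unknown, highest tested concentration 10 microM, except SN-38 at 1 microM.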
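Also: luminescence signal used as a surrogate for viable cells; spheroids exposed to drugs for seven days before readout.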

Compared with `COc1cc(C2c3cc4c(cc3C(OC3OC5COC(C)OC5C(O)C3O)C3COC(=O)C23)OCO4)cc(OC)c1O` (configuration not stated) + Cc1cccc(N(C)C(=O)C2C(O)CCN2c2nc(C)cc(C(F)(F)F)c2C#N)c1, `CC1COCCN1c1cc(C2(S(C)(=N)=O)CC2)nc(-c2ccnc3[nH]ccc23)n1` (configuration not stated) + COC1C(OC(N)=O)C(O)C(Oc2ccc3c(O)c(NC(=O)c4ccc(O)c(CC=C(C)C)c4)c(=O)oc3c2C)OC1(C)C is higher in viability, T/C: 86.2% for the first, 112% for the second.

Same assay, conditions: 997537-175-T-J1-PDC complex spheroid viability, combination with POLQ inhibitors; second compound 3.16 µM; first compound 0.316 µM; active compounds read low

First: COc1cccc2c1C(=O)c1c(O)c3c(c(O)c1C2=O)CC(O)(C(=O)CO)CC3OC1CC(N)C(O)C(C)O1 (configuration not stated) + Nc1ccc(C#CCN(C(=O)Cc2ncc(C(F)(F)F)cc2C(F)(F)F)c2ccc(F)cc2)nn1
Second: COc1cc(C2c3cc4c(cc3C(OC3OC5COC(C)OC5C(O)C3O)C3COC(=O)C23)OCO4)cc(OC)c1O (configuration not stated) + Cc1cccc(N(C)C(=O)C2C(O)CCN2c2nc(C)cc(C(F)(F)F)c2C#N)c1
The viability, T/C of the first is lower: 72.6% for the first, 102% for the second.

Compound `CC1COCCN1c1cc(C2(S(C)(=N)=O)CC2)nc(-c2ccnc3[nH]ccc23)n1` (configuration not stated) + COC1C(OC(N)=O)C(O)C(Oc2ccc3c(O)c(NC(=O)c4ccc(O)c(CC=C(C)C)c4)c(=O)oc3c2C)OC1(C)C has a viability, T/C of 106%.

Same assay, conditions: 997537-175-T-J1-PDC complex spheroid viability, combination with POLQ inhibitors; second compound 3.16 µM; first compound 1 µM; active compounds read low

Going from `COc1cccc2c1C(=O)c1c(O)c3c(c(O)c1C2=O)CC(O)(C(=O)CO)CC3OC1CC(N)C(O)C(C)O1` (configuration not stated) + Nc1ccc(C#CCN(C(=O)Cc2ncc(C(F)(F)F)cc2C(F)(F)F)c2ccc(F)cc2)nn1 to `COc1cc(C2c3cc4c(cc3C(OC3OC5COC(C)OC5C(O)C3O)C3COC(=O)C23)OCO4)cc(OC)c1O` (configuration not stated) + Cc1cccc(N(C)C(=O)C2C(O)CCN2c2nc(C)cc(C(F)(F)F)c2C#N)c1, the viability, T/C rises from 78.8% to 93.3%.

`CC1COCCN1c1cc(C2(S(C)(=N)=O)CC2)nc(-c2ccnc3[nH]ccc23)n1` (configuration not stated) + COC1C(OC(N)=O)C(O)C(Oc2ccc3c(O)c(NC(=O)c4ccc(O)c(CC=C(C)C)c4)c(=O)oc3c2C)OC1(C)C gave a viability, T/C of 94.3%.

Same assay, conditions: 997537-175-T-J1-PDC complex spheroid viability, combination with POLQ inhibitors; second compound 3.16 µM; first compound 3.16 µM; active compounds read low

Going from `COc1cccc2c1C(=O)c1c(O)c3c(c(O)c1C2=O)CC(O)(C(=O)CO)CC3OC1CC(N)C(O)C(C)O1` (configuration not stated) + Nc1ccc(C#CCN(C(=O)Cc2ncc(C(F)(F)F)cc2C(F)(F)F)c2ccc(F)cc2)nn1 to `COc1cc(C2c3cc4c(cc3C(OC3OC5COC(C)OC5C(O)C3O)C3COC(=O)C23)OCO4)cc(OC)c1O` (configuration not stated) + Cc1cccc(N(C)C(=O)C2C(O)CCN2c2nc(C)cc(C(F)(F)F)c2C#N)c1, the viability, T/C rises from 46.6% to 77.3%.

Work on `CC1COCCN1c1cc(C2(S(C)(=N)=O)CC2)nc(-c2ccnc3[nH]ccc23)n1` (configuration not stated) + COC1C(OC(N)=O)C(O)C(Oc2ccc3c(O)c(NC(=O)c4ccc(O)c(CC=C(C)C)c4)c(=O)oc3c2C)OC1(C)C yielded a viability, T/C of 79.2%.

Same assay, conditions: 997537-175-T-J1-PDC complex spheroid viability, combination with POLQ inhibitors; second compound 3.16 µM; first compound 10 µM; active compounds read low

First: COc1cccc2c1C(=O)c1c(O)c3c(c(O)c1C2=O)CC(O)(C(=O)CO)CC3OC1CC(N)C(O)C(C)O1 (configuration not stated) + Nc1ccc(C#CCN(C(=O)Cc2ncc(C(F)(F)F)cc2C(F)(F)F)c2ccc(F)cc2)nn1
Second: COc1cc(C2c3cc4c(cc3C(OC3OC5COC(C)OC5C(O)C3O)C3COC(=O)C23)OCO4)cc(OC)c1O (configuration not stated) + Cc1cccc(N(C)C(=O)C2C(O)CCN2c2nc(C)cc(C(F)(F)F)c2C#N)c1
The viability, T/C of the first is lower: 8.26% for the first, 69.4% for the second.

`CC1COCCN1c1cc(C2(S(C)(=N)=O)CC2)nc(-c2ccnc3[nH]ccc23)n1` (configuration not stated) + COC1C(OC(N)=O)C(O)C(Oc2ccc3c(O)c(NC(=O)c4ccc(O)c(CC=C(C)C)c4)c(=O)oc3c2C)OC1(C)C gave a viability, T/C of 66.6%.

Same assay, conditions: 997537-175-T-J1-PDC complex spheroid viability, combination with POLQ inhibitors; second compound 10 µM; first compound 0.0316 µM; active compounds read low

Compared with `COc1cccc2c1C(=O)c1c(O)c3c(c(O)c1C2=O)CC(O)(C(=O)CO)CC3OC1CC(N)C(O)C(C)O1` (configuration not stated) + Nc1ccc(C#CCN(C(=O)Cc2ncc(C(F)(F)F)cc2C(F)(F)F)c2ccc(F)cc2)nn1, `COc1cc(C2c3cc4c(cc3C(OC3OC5COC(C)OC5C(O)C3O)C3COC(=O)C23)OCO4)cc(OC)c1O` (configuration not stated) + Cc1cccc(N(C)C(=O)C2C(O)CCN2c2nc(C)cc(C(F)(F)F)c2C#N)c1 is higher in viability, T/C: 94.7% for the first, 112% for the second.

`CC1COCCN1c1cc(C2(S(C)(=N)=O)CC2)nc(-c2ccnc3[nH]ccc23)n1` (configuration not stated) + COC1C(OC(N)=O)C(O)C(Oc2ccc3c(O)c(NC(=O)c4ccc(O)c(CC=C(C)C)c4)c(=O)oc3c2C)OC1(C)C showed a viability, T/C of 109%.

Same assay, conditions: 997537-175-T-J1-PDC complex spheroid viability, combination with POLQ inhibitors; second compound 10 µM; first compound 0.1 µM; active compounds read low

Compared with `COc1cccc2c1C(=O)c1c(O)c3c(c(O)c1C2=O)CC(O)(C(=O)CO)CC3OC1CC(N)C(O)C(C)O1` (configuration not stated) + Nc1ccc(C#CCN(C(=O)Cc2ncc(C(F)(F)F)cc2C(F)(F)F)c2ccc(F)cc2)nn1, `COc1cc(C2c3cc4c(cc3C(OC3OC5COC(C)OC5C(O)C3O)C3COC(=O)C23)OCO4)cc(OC)c1O` (configuration not stated) + Cc1cccc(N(C)C(=O)C2C(O)CCN2c2nc(C)cc(C(F)(F)F)c2C#N)c1 is lower in viability, T/C: 97.9% for the first, 91.3% for the second.

Compound `CC1COCCN1c1cc(C2(S(C)(=N)=O)CC2)nc(-c2ccnc3[nH]ccc23)n1` (configuration not stated) + COC1C(OC(N)=O)C(O)C(Oc2ccc3c(O)c(NC(=O)c4ccc(O)c(CC=C(C)C)c4)c(=O)oc3c2C)OC1(C)C has a viability, T/C of 95.7%.

Same assay, conditions: 997537-175-T-J1-PDC complex spheroid viability, combination with POLQ inhibitors; second compound 10 µM; first compound 0.316 µM; active compounds read low

Going from `COc1cccc2c1C(=O)c1c(O)c3c(c(O)c1C2=O)CC(O)(C(=O)CO)CC3OC1CC(N)C(O)C(C)O1` (configuration not stated) + Nc1ccc(C#CCN(C(=O)Cc2ncc(C(F)(F)F)cc2C(F)(F)F)c2ccc(F)cc2)nn1 to `COc1cc(C2c3cc4c(cc3C(OC3OC5COC(C)OC5C(O)C3O)C3COC(=O)C23)OCO4)cc(OC)c1O` (configuration not stated) + Cc1cccc(N(C)C(=O)C2C(O)CCN2c2nc(C)cc(C(F)(F)F)c2C#N)c1, the viability, T/C rises from 91.4% to 106%.

`CC1COCCN1c1cc(C2(S(C)(=N)=O)CC2)nc(-c2ccnc3[nH]ccc23)n1` (configuration not stated) + COC1C(OC(N)=O)C(O)C(Oc2ccc3c(O)c(NC(=O)c4ccc(O)c(CC=C(C)C)c4)c(=O)oc3c2C)OC1(C)C gave a viability, T/C of 98.9%.

Same assay, conditions: 997537-175-T-J1-PDC complex spheroid viability, combination with POLQ inhibitors; second compound 10 µM; first compound 1 µM; active compounds read low

Going from `COc1cccc2c1C(=O)c1c(O)c3c(c(O)c1C2=O)CC(O)(C(=O)CO)CC3OC1CC(N)C(O)C(C)O1` (configuration not stated) + Nc1ccc(C#CCN(C(=O)Cc2ncc(C(F)(F)F)cc2C(F)(F)F)c2ccc(F)cc2)nn1 to `COc1cc(C2c3cc4c(cc3C(OC3OC5COC(C)OC5C(O)C3O)C3COC(=O)C23)OCO4)cc(OC)c1O` (configuration not stated) + Cc1cccc(N(C)C(=O)C2C(O)CCN2c2nc(C)cc(C(F)(F)F)c2C#N)c1, the viability, T/C rises from 80% to 91.9%.

`CC1COCCN1c1cc(C2(S(C)(=N)=O)CC2)nc(-c2ccnc3[nH]ccc23)n1` (configuration not stated) + COC1C(OC(N)=O)C(O)C(Oc2ccc3c(O)c(NC(=O)c4ccc(O)c(CC=C(C)C)c4)c(=O)oc3c2C)OC1(C)C gave a viability, T/C of 66.5%.

Same assay, conditions: 997537-175-T-J1-PDC complex spheroid viability, combination with POLQ inhibitors; second compound 10 µM; first compound 3.16 µM; active compounds read low

First: COc1cccc2c1C(=O)c1c(O)c3c(c(O)c1C2=O)CC(O)(C(=O)CO)CC3OC1CC(N)C(O)C(C)O1 (configuration not stated) + Nc1ccc(C#CCN(C(=O)Cc2ncc(C(F)(F)F)cc2C(F)(F)F)c2ccc(F)cc2)nn1
Second: COc1cc(C2c3cc4c(cc3C(OC3OC5COC(C)OC5C(O)C3O)C3COC(=O)C23)OCO4)cc(OC)c1O (configuration not stated) + Cc1cccc(N(C)C(=O)C2C(O)CCN2c2nc(C)cc(C(F)(F)F)c2C#N)c1
The viability, T/C of the first is lower: 34.8% for the first, 76.3% for the second.

Compound `CC1COCCN1c1cc(C2(S(C)(=N)=O)CC2)nc(-c2ccnc3[nH]ccc23)n1` (configuration not stated) + COC1C(OC(N)=O)C(O)C(Oc2ccc3c(O)c(NC(=O)c4ccc(O)c(CC=C(C)C)c4)c(=O)oc3c2C)OC1(C)C has a viability, T/C of 71.6%.

Same assay, conditions: 997537-175-T-J1-PDC complex spheroid viability, combination with POLQ inhibitors; second compound 10 µM; first compound 10 µM; active compounds read low

Going from `COc1cccc2c1C(=O)c1c(O)c3c(c(O)c1C2=O)CC(O)(C(=O)CO)CC3OC1CC(N)C(O)C(C)O1` (configuration not stated) + Nc1ccc(C#CCN(C(=O)Cc2ncc(C(F)(F)F)cc2C(F)(F)F)c2ccc(F)cc2)nn1 to `COc1cc(C2c3cc4c(cc3C(OC3OC5COC(C)OC5C(O)C3O)C3COC(=O)C23)OCO4)cc(OC)c1O` (configuration not stated) + Cc1cccc(N(C)C(=O)C2C(O)CCN2c2nc(C)cc(C(F)(F)F)c2C#N)c1, the viability, T/C rises from 10.1% to 64.6%.

In the case of `CC1COCCN1c1cc(C2(S(C)(=N)=O)CC2)nc(-c2ccnc3[nH]ccc23)n1` (configuration not stated) + COC1C(OC(N)=O)C(O)C(Oc2ccc3c(O)c(NC(=O)c4ccc(O)c(CC=C(C)C)c4)c(=O)oc3c2C)OC1(C)C, the viability, T/C is reported as 62.8%.
